Tests used:
Type in all cases: biochemical
off-target kinases = assay: KinaseProfiler off-target kinase profiling, full kinase panel; conditions: 10 μM; panel of about 230 kinases
Procedure: (§1) A representative compound (Example 15) of the invention was tested for off-target kinase activity at a concentration of 10 μM by Millipore, Inc. in their KinaseProfiler™ service against all the kinases available in their full kinase panel. The compound was run in duplicate at a concentration of ATP near the Km for each individual kinase according to Millipore's specifications. The results are shown in Table B. Data are reported as percent of control (POC) and are the average of the two replicates.
Such a drug profile would represent a safer approach to treating pain, inflammation, cancer and certain skin diseases than has been previously reported.

AKT2 = biological target: T1, AKT2 (Homo sapiens, UniProt P31751); assay: KinaseProfiler; conditions: 10 μM, ATP near Km
T1 construct: purchased Millipore (KinaseProfiler service)
Outline: (§2)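 The compound is tested once at 10 μM against each kinase, in duplicate, with ATP near Km. Activity remaining is given as percent of control, averaged.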

AURKA = biological target: T2, AURKA (Homo sapiens, UniProt O14965); assay: KinaseProfiler; conditions: 10 μM, ATP near Km
T2 construct: purchased Millipore (KinaseProfiler service)
Outline: as §2

CAMK2d = biological target: T3, CAMK2d (Homo sapiens, UniProt Q13557); assay: KinaseProfiler; conditions: 10 μM, ATP near Km
T3 construct: purchased Millipore (KinaseProfiler service)
Outline: as §2

CAMK4 = biological target: T4, CAMK4 (Homo sapiens, UniProt Q16566); assay: KinaseProfiler; conditions: 10 μM, ATP near Km
T4 construct: purchased Millipore (KinaseProfiler service)
Outline: as §2

CK1gamma1 = biological target: T5, CK1gamma1 (Homo sapiens, UniProt Q9HCP0); assay: KinaseProfiler; conditions: 10 μM, ATP near Km
T5 construct: purchased Millipore, Inc. (KinaseProfiler service)
Outline: as §2

CK1gamma2 = biological target: T6, CK1gamma2 (Homo sapiens, UniProt P78368); assay: KinaseProfiler; conditions: 10 μM, ATP near Km
T6 construct: purchased Millipore, Inc. (KinaseProfiler service)
Outline: as §2

DCAMKL2 = biological target: T7, DCAMKL2 (Homo sapiens, UniProt Q8N568); assay: KinaseProfiler; conditions: 10 μM, ATP near Km
T7 construct: purchased Millipore, Inc. (KinaseProfiler service)
Outline: as §2

DMPK = biological target: T8, DMPK (Homo sapiens, UniProt Q09013); assay: KinaseProfiler; conditions: 10 μM, ATP near Km
T8 construct: purchased Millipore, Inc. (KinaseProfiler service)
Outline: as §2

EphA7 = biological target: T9, EphA7 (Homo sapiens, UniProt Q15375); assay: KinaseProfiler; conditions: 10 μM, ATP near Km
T9 construct: purchased Millipore, Inc. (KinaseProfiler service)
Outline: as §2

Fes = biological target: T10, Fes (Homo sapiens, UniProt P07332); assay: KinaseProfiler; conditions: 10 μM, ATP near Km
T10 construct: purchased Millipore, Inc. (KinaseProfiler service)
Outline: as §2

Fgr = biological target: T11, Fgr (Homo sapiens, UniProt P09769); assay: KinaseProfiler; conditions: 10 μM, ATP near Km
T11 construct: purchased Millipore, Inc. (KinaseProfiler service)
Outline: as §2

Flt4 = biological target: T12, Flt4 (Homo sapiens, UniProt P35916); assay: KinaseProfiler; conditions: 10 μM, ATP near Km
T12 construct: purchased Millipore, Inc. (KinaseProfiler service)
Outline: as §2

Hck = biological target: T13, Hck (Homo sapiens, UniProt P08631); assay: KinaseProfiler; conditions: 10 μM, ATP near Km
T13 construct: purchased Millipore, Inc. (KinaseProfiler service)
Outline: as §2

IGF-1R Activated = biological target: T14, IGF-1R Activated (Homo sapiens, UniProt P08069); assay: KinaseProfiler; conditions: 10 μM, ATP near Km
T14 construct: purchased Millipore, Inc. (KinaseProfiler service)
Outline: as §2

JAK2 = biological target: T15, JAK2 (Homo sapiens, UniProt O60674); assay: KinaseProfiler; conditions: 10 μM, ATP near Km
T15 construct: purchased Millipore, Inc. (KinaseProfiler service)
Outline: as §2

JAK3 = biological target: T16, JAK3 (Homo sapiens, UniProt P52333); assay: KinaseProfiler; conditions: 10 μM, ATP near Km
T16 construct: purchased Millipore, Inc. (KinaseProfiler service)
Outline: as §2

MKNK2 = biological target: T17, MKNK2 (Homo sapiens, UniProt Q9HBH9); assay: KinaseProfiler; conditions: 10 μM, ATP near Km
T17 construct: purchased Millipore, Inc. (KinaseProfiler service)
Outline: as §2

MSK1 = biological target: T18, MSK1 (Homo sapiens, UniProt O75582); assay: KinaseProfiler; conditions: 10 μM, ATP near Km
T18 construct: purchased Millipore, Inc. (KinaseProfiler service)
Outline: as §2

MSSK1 = biological target: T19, MSSK1 (Homo sapiens, UniProt Q9UPE1); assay: KinaseProfiler; conditions: 10 μM, ATP near Km
T19 construct: purchased Millipore, Inc. (KinaseProfiler service)
Outline: as §2

MST1 = biological target: T20, MST1 (Homo sapiens, UniProt Q13043); assay: KinaseProfiler; conditions: 10 μM, ATP near Km
T20 construct: purchased Millipore, Inc. (KinaseProfiler service)
Outline: as §2

NEK11 = biological target: T21, NEK11 (Homo sapiens, UniProt Q8NG66); assay: KinaseProfiler; conditions: 10 μM, ATP near Km
T21 construct: purchased Millipore, Inc. (KinaseProfiler service)
Outline: as §2

NEK6 = biological target: T22, NEK6 (Homo sapiens, UniProt Q9HC98); assay: KinaseProfiler; conditions: 10 μM, ATP near Km
T22 construct: purchased Millipore, Inc. (KinaseProfiler service)
Outline: as §2

NEK7 = biological target: T23, NEK7 (Homo sapiens, UniProt Q8TDX7); assay: KinaseProfiler; conditions: 10 μM, ATP near Km
T23 construct: purchased Millipore, Inc. (KinaseProfiler service)
Outline: as §2

PAK5 = biological target: T24, PAK5 (Homo sapiens, UniProt Q9P286); assay: KinaseProfiler; conditions: 10 μM, ATP near Km
T24 construct: purchased Millipore, Inc. (KinaseProfiler service)
Outline: as §2

PDGFRalpha = biological target: T25, PDGFRalpha (Homo sapiens, UniProt P16234); assay: KinaseProfiler; conditions: 10 μM, ATP near Km
T25 construct: purchased Millipore, Inc. (KinaseProfiler service)
Outline: as §2

PDK1 = biological target: T26, PDK1 (Homo sapiens, UniProt O15530); assay: KinaseProfiler; conditions: 10 μM, ATP near Km
T26 construct: purchased Millipore, Inc. (KinaseProfiler service)
Outline: as §2

PKCdelta = biological target: T27, PKCdelta (Homo sapiens, UniProt Q05655); assay: KinaseProfiler; conditions: 10 μM, ATP near Km
T27 construct: purchased Millipore, Inc. (KinaseProfiler service)
Outline: as §2

PKCeta = biological target: T28, PKCeta (Homo sapiens, UniProt P24723); assay: KinaseProfiler; conditions: 10 μM, ATP near Km
T28 construct: purchased Millipore, Inc. (KinaseProfiler service)
Outline: as §2

PKCgamma = biological target: T29, PKCgamma (Homo sapiens, UniProt P05129); assay: KinaseProfiler; conditions: 10 μM, ATP near Km
T29 construct: purchased Millipore, Inc. (KinaseProfiler service)
Outline: as §2

PRKG1alpha = biological target: T30, PRKG1alpha (Homo sapiens, UniProt Q13976); assay: KinaseProfiler; conditions: 10 μM, ATP near Km
T30 construct: purchased Millipore, Inc. (KinaseProfiler service)
Outline: as §2

PTK5 = biological target: T31, PTK5 (Homo sapiens, UniProt P42685); assay: KinaseProfiler; conditions: 10 μM, ATP near Km
T31 construct: purchased Millipore, Inc. (KinaseProfiler service)
Outline: as §2

Plk2 = biological target: T32, Plk2 (Homo sapiens, UniProt Q9NYY3); assay: KinaseProfiler; conditions: 10 μM, ATP near Km
T32 construct: purchased Millipore, Inc. (KinaseProfiler service)
Outline: as §2

RIPK2 = biological target: T33, RIPK2 (Homo sapiens, UniProt O43353); assay: KinaseProfiler; conditions: 10 μM, ATP near Km
T33 construct: purchased Millipore, Inc. (KinaseProfiler service)
Outline: as §2

SIK = biological target: T34, SIK (Homo sapiens, UniProt P57059); assay: KinaseProfiler; conditions: 10 μM, ATP near Km
T34 construct: purchased Millipore, Inc. (KinaseProfiler service)
Outline: as §2

TSSK2 = biological target: T35, TSSK2 (Homo sapiens, UniProt Q96PF2); assay: KinaseProfiler; conditions: 10 μM, ATP near Km
T35 construct: purchased Millipore, Inc. (KinaseProfiler service)
Outline: as §2

TrkA = TrkA (Homo sapiens, UniProt P04629); assay: KinaseProfiler; parameters: purchased Millipore, Inc. (KinaseProfiler service); conditions: 10 μM, ATP near Km
Procedure: as §1

T11 sequence (P09769 whole entry): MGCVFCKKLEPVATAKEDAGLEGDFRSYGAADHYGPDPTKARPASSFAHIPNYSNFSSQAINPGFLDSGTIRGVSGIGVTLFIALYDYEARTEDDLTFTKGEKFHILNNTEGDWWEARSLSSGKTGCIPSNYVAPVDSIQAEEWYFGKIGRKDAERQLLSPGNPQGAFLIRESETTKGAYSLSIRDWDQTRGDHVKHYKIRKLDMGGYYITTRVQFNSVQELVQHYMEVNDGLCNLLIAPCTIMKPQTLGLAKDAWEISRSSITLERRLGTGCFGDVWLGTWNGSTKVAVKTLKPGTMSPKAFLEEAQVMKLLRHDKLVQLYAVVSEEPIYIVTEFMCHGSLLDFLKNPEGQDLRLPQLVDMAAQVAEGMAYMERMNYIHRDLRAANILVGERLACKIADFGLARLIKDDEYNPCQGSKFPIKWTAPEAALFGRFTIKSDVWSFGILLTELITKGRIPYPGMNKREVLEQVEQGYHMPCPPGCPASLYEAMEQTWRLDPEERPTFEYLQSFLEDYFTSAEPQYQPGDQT
T24 sequence (Q9P286 whole entry): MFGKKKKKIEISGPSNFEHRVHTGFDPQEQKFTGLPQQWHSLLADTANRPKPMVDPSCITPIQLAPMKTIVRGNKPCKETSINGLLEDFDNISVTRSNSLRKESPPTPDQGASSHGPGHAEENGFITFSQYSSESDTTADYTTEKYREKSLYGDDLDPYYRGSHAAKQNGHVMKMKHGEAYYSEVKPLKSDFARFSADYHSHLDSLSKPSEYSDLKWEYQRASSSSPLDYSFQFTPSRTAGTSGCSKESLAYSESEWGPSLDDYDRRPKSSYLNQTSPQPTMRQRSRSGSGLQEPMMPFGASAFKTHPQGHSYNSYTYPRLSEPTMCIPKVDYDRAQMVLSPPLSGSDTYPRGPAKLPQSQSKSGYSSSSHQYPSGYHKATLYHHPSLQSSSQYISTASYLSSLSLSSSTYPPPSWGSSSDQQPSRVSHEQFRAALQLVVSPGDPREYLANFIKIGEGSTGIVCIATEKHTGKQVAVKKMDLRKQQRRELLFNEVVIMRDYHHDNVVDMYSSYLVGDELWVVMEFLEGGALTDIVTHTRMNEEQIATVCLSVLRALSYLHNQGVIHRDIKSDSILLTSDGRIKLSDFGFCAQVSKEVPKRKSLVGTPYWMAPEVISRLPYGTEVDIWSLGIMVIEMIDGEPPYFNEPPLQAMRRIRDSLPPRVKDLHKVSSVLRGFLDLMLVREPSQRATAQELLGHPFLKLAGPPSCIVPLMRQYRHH
T15 sequence (O60674 whole entry): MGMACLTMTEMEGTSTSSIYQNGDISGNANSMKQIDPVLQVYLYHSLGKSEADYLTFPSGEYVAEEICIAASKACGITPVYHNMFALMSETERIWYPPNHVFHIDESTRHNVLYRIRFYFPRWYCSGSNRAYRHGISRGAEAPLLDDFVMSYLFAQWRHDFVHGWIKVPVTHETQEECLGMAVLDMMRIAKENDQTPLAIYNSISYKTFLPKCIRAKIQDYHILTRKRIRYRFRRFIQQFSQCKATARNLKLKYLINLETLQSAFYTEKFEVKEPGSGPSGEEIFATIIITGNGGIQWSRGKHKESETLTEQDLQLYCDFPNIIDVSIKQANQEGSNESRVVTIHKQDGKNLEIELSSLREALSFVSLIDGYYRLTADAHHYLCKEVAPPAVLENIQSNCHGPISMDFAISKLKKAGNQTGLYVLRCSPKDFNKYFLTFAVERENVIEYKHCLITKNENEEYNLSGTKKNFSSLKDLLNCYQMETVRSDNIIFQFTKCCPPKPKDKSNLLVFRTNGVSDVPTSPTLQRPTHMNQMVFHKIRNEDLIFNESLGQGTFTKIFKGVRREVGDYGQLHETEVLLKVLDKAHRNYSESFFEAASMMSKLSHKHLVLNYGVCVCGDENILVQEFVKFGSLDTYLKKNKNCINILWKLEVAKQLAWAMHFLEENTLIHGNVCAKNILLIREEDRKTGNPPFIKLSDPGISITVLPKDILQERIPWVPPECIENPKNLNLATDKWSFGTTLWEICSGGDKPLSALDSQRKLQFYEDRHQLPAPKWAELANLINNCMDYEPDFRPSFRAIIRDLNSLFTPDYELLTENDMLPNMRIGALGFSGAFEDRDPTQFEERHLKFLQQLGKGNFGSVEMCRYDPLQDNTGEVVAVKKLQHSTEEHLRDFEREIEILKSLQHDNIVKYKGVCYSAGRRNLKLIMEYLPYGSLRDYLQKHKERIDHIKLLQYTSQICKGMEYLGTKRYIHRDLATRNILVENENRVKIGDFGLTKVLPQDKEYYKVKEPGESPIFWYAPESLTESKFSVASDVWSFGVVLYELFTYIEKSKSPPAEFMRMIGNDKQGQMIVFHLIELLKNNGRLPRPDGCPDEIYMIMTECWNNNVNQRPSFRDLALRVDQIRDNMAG
T9 sequence (Q15375 28-998): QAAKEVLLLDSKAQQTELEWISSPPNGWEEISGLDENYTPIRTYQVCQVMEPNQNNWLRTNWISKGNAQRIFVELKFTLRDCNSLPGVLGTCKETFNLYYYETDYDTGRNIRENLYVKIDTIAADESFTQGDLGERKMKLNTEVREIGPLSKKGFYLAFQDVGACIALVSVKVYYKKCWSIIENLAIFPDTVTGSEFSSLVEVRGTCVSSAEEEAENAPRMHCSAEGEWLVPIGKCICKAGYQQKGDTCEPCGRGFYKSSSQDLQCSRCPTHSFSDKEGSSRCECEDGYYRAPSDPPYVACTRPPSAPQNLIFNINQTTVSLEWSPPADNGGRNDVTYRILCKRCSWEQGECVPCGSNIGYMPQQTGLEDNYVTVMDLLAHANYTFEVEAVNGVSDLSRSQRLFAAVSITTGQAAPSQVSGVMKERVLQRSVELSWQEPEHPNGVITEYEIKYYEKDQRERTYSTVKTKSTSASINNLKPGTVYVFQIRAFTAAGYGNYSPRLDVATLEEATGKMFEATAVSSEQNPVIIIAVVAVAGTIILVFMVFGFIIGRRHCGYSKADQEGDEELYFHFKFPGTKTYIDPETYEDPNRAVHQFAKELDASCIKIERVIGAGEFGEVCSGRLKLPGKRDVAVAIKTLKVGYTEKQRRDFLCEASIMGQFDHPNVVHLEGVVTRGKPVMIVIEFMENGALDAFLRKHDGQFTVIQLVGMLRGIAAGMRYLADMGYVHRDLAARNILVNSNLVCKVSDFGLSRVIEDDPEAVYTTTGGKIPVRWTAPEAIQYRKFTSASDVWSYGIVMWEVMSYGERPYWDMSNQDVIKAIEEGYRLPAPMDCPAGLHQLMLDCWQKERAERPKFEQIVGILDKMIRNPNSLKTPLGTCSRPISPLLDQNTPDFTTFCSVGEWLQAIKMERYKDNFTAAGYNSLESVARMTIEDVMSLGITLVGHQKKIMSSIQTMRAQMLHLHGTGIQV
T34 sequence (P57059 whole entry): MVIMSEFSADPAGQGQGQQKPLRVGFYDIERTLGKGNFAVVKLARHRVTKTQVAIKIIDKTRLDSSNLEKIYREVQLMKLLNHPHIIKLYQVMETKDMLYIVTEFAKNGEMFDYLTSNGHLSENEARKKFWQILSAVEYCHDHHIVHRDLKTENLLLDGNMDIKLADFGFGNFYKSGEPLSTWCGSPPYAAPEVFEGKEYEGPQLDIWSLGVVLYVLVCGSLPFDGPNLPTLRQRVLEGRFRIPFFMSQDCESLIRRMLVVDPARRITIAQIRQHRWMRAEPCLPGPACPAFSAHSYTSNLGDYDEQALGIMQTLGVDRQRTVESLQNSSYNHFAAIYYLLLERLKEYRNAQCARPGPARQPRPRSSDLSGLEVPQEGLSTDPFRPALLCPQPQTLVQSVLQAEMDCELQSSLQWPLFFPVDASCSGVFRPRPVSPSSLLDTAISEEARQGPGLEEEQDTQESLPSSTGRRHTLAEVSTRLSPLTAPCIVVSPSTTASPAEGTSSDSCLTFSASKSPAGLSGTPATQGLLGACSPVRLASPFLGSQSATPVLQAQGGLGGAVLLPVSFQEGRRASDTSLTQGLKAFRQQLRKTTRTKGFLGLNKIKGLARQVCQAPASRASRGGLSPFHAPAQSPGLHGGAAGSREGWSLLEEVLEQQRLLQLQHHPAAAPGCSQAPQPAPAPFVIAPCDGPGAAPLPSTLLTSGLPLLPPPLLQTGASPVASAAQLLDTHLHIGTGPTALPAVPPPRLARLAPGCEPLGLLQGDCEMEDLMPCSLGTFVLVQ
T28 sequence (P24723 whole entry): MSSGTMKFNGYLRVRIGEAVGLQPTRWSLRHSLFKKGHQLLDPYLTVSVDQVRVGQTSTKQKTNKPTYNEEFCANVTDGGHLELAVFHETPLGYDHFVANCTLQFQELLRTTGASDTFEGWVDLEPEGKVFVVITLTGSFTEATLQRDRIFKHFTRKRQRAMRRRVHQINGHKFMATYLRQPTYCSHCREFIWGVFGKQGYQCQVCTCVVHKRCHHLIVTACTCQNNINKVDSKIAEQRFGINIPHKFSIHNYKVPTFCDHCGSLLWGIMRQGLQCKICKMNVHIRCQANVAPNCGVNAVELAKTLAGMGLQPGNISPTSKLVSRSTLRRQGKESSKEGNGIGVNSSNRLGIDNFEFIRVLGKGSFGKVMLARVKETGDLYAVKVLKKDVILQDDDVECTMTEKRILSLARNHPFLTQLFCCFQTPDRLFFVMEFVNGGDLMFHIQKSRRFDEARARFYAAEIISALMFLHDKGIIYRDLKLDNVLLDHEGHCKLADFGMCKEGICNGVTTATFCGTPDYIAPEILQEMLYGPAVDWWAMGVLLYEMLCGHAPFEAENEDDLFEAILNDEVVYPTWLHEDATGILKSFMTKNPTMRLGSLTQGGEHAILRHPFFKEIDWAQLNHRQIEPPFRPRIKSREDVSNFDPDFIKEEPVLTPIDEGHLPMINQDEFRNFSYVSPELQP

Avg POC (AKT2): 166.5 POC | Avg POC (AURKA): 113.5 POC | Avg POC (CAMK2d): 135.5 POC | Avg POC (CAMK4): 132 POC | Avg POC (CK1gamma1): 99.5 POC | Avg POC (CK1gamma2): 120 POC | Avg POC (DCAMKL2): 136 POC | Avg POC (DMPK): 108.5 POC | Avg POC (EphA7): 103 POC | Avg POC (Fes): 110 POC | Avg POC (Fgr): 118 POC | Avg POC (Flt4): 91 POC | Avg POC (Hck): 89 POC | Avg POC (IGF-1R Activated): 102 POC | Avg POC (JAK2): 111.5 POC | Avg POC (JAK3): 111 POC | Avg POC (MKNK2): 106 POC | Avg POC (MSK1): 132.5 POC | Avg POC (MSSK1): 122 POC | Avg POC (MST1): 94.5 POC | Avg POC (NEK11): 75 POC | Avg POC (NEK6): 111.5 POC | Avg POC (NEK7): 142 POC | Avg POC (PAK5): 132.5 POC | Avg POC (PDGFRalpha): 117.5 POC | Avg POC (PDK1): 116.5 POC | Avg POC (PKCdelta): 96 POC | Avg POC (PKCeta): 105.5 POC | Avg POC (PKCgamma): 99.5 POC | Avg POC (PRKG1alpha): 113.5 POC | Avg POC (PTK5): 102.5 POC | Avg POC (Plk2): 105 POC | Avg POC (RIPK2): 102 POC | Avg POC (SIK): 137 POC | Avg POC (TSSK2): 114.5 POC | Avg POC (TrkA): 0 POC
Structure (SMILES): COCCCc1cc(Cl)c(Cl)cc1NC(=O)Nc1c(C)c(-c2cnn(C)c2)nn1-c1ccccc1 [Example 15, 1-(4,5-dichloro-2-(3-methoxypropyl)phenyl)-3-(1′,4-dimethyl-1-phenyl-1H,1′H-[3,4′-bipyrazol]-5-yl)urea]
off-target kinase activity / selectivity for TrkA versus other kinases in the panel (off-target kinases): largely inactive against off-target kinases

Source: US9790210B2, “N-(monocyclic aryl),N'-pyrazolyl-urea, thiourea, guanidine and cyanoguanidine compounds as TrkA kinase inhibitors” (Array BioPharma Inc., priority 2012, dated 2017)
